Assay results taken from patent US20060263802A1 (priority 2003, published 2006).

Columns and labels:
Assay type in all cases: binding
[1] = tested on: human monoclonal antibody CRJB
[2] = tested on: human monoclonal antibody CR57
[3] = tested on: human monoclonal antibody CRJA
[4] = tested on: human monoclonal antibody CRJB; remark: listed apart in the source
[5] = tested on: human monoclonal antibody CR57; remark: listed apart in the source
[6] = tested on: human monoclonal antibody CRJA; remark: listed apart in the source

Sequence	Binding of CRJB to linear peptide (PEPSCAN-ELISA signal) [1]	Binding of CR57 to linear peptide (PEPSCAN-ELISA signal) [2]	Binding of CRJA to linear peptide (PEPSCAN-ELISA signal) [3]	Binding of CRJB (10 μg/ml) to looped/cyclic peptide (PEPSCAN-ELISA signal) [4]	Binding of CR57 (10 μg/ml) to looped/cyclic peptide (PEPSCAN-ELISA signal) [5]	Binding of CRJA (10 μg/ml) to looped/cyclic peptide (PEPSCAN-ELISA signal) [6]	Binding of CRJB (10 μg/ml) to looped/cyclic peptide (PEPSCAN-ELISA) [4]	Binding of CR57 (10 μg/ml) to looped/cyclic peptide (PEPSCAN-ELISA) [5]	Binding of CRJA (10 μg/ml) to looped/cyclic peptide (PEPSCAN-ELISA) [6]	Binding of human monoclonal antibody CRJB to linear peptide (PEPSCAN-ELISA signal) [1]	Binding of human monoclonal antibody CR57 to linear peptide (PEPSCAN-ELISA signal) [2]	Binding of human monoclonal antibody CRJA to linear peptide (PEPSCAN-ELISA signal) [3]	Binding of CRJB to looped/cyclic peptide (PEPSCAN-ELISA signal) [4]	Binding of CR57 to looped/cyclic peptide (PEPSCAN-ELISA signal) [5]	Binding of CRJA to looped/cyclic peptide (PEPSCAN-ELISA signal) [6]	binding of antibody CR57 to looped/cyclic peptide (PEPSCAN OD) [5]	binding of antibody CR57 to linear peptide (PEPSCAN OD) [2]
ACRAAYNWKMAGDPR	116	82	93	93	138	110											
RKHFRPTPDACRAAY	107	64	57	79	72	41											
LVNLHDFRSDEIEHL	104	47	106				23	1	93								
AEDFVEVHLPDVHNQ										138	123	114	90	117	101		
HSRVFPSGKCSGVAV	118	97	111	104	138	113											
VTEAENYTNFVGYVT	90	79	79	80	84	97											
STVFKDGDEAEDFVE										120	104	93	93	106	100		
DQLVNLHDFRSDEIE	117	54	88				27	46	63								
IWMPENPRLGMSCDI	110	98	87	156	329	152										clearly bound	
VSFRRLSHLRKLVPG	111	90	55				94	141	99								
RAAYNWKMAGDPRYE	130	90	92	101	141	86											
SVADLDPYDRSLHSR	106	49	92	71	58	83											
SDEIEHLVVEELVRK	117	101	97				85	96	99								
SLKGACKLKLCGVLG	111	200	99				79	129	106								bound
HNPYPDYRWLRTVKT	108	86	98	69	85	65											
GYVTTTFKRKHFRPT	123	70	87	138	200	101										clearly bound	
VNGVFFNGIILGPDG	116	68	94				96	90	78								
GKCSGVAVSSTYCST	143	92	103	74	79	97											
PYPDYRWLRTVKTTK	93	65	84	92	88	76											
SYMELKVGYILAIKM	123	65	143	92	106	96											
ESLVIISPSVADLDP	125	88	120	65	99	118											
GTWVAMQTSNETKWC	113	58	61				85	71	62								
IISPSVADLDPYDRS	125	83	98	93	115	106											
